Laboratory results: ChEMBL document CHEMBL5058643, “Data for DCP probe BI-2081” (2022)
Blank lines part the entries; values can stand above or below the compound they belong to.

Tests used:
[1] = biological target: Melatonin receptor type 1A (Homo sapiens) (UniProt P48039); test: MT1/H Eurofins SafetyScreen44 (BI); details: Compound concentration 10.0 uM
[2] = biological target: Histamine H2 receptor (Homo sapiens) (UniProt P25021); test: H2/H Eurofins SafetyScreen44 (BI); details: Compound concentration 10.0 uM
[3] = biological target: Kappa-type opioid receptor (Homo sapiens) (UniProt P41145); test: KAPPA/HU Eurofins SafetyScreen44 (BI); details: Compound concentration 10.0 uM
[4] = biological target: Gastrin/cholecystokinin type B receptor (Homo sapiens) (UniProt P32239); test: CCKB/H Eurofins SafetyScreen44 (BI); details: Compound concentration 10.0 uM
[5] = biological target: D(4) dopamine receptor (Homo sapiens) (UniProt P21917); test: D4.2/H Eurofins SafetyScreen44 (BI); details: Compound concentration 10.0 uM
[6] = biological target: Sodium-dependent serotonin transporter (Homo sapiens) (UniProt P31645); test: 5HTTRANS/HU Eurofins SafetyScreen44 (BI); details: Compound concentration 10.0 uM
[7] = biological target: GABA-A receptor; anion channel; test: GPCRScan assay: inhibition of GABAA/BZP; type: protein-complex assay, Rattus norvegicus; design: radioligand conc. used [nm] 0.6 – 4.0, parental cells brain tissue
[8] = biological target: Sodium- and chloride-dependent GABA transporter 1 (Rattus norvegicus) (UniProt P23978); test: GABATRANS/RA Eurofins SafetyScreen44 (BI); details: Compound concentration 10.0 uM
[9] = biological target: Androgen receptor (Rattus norvegicus) (UniProt P15207); test: TESTOST/RA Eurofins SafetyScreen44 (BI); details: Compound concentration 10.0 uM
[10] = biological target: T1, Alpha-2B adrenergic receptor (Homo sapiens) (UniProt P18089); test: ALPHA2B/H Eurofins SafetyScreen44 (BI)
T1 sequence (whole entry): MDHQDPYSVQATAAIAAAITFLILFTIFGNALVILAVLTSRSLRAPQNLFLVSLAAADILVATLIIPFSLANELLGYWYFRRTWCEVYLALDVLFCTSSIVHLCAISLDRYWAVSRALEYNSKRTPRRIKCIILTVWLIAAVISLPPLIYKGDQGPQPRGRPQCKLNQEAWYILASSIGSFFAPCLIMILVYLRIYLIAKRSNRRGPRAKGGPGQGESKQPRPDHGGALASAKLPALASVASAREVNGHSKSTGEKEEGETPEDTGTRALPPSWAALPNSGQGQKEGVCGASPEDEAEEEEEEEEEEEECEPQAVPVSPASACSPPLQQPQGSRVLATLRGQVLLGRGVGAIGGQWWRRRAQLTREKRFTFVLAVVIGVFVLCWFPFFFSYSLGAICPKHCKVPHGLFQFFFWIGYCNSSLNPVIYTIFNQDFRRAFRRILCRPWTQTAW

[11] = biological target: Voltage-dependent L-type calcium channel subunit alpha-1C (Rattus norvegicus, UniProt P22002); test: CA+/DHPSI/RA Eurofins SafetyScreen44 (BI); details: compound concentration 10 uM, read-out: % Ctrl
[12] = test system: imidazoline I2 receptor (Rattus norvegicus); test: I2/CENTR/R Eurofins SafetyScreen44 (BI); details: Compound concentration 10.0 uM
[13] = biological target: Beta-1 adrenergic receptor (Homo sapiens) (UniProt P08588); test: BETA1/HU Eurofins SafetyScreen44 (BI); details: Compound concentration 10.0 uM
[14] = biological target: D(1A) dopamine receptor (Homo sapiens) (UniProt P21728); test: D1/HU Eurofins SafetyScreen44 (BI); details: Compound concentration 10.0 uM
[15] = biological target: Delta-type opioid receptor (Homo sapiens) (UniProt P41143); test: DELTA/HU Eurofins SafetyScreen44 (BI); details: Compound concentration 10.0 uM
[16] = biological target: Glutamate receptor ionotropic, kainate 1 (Rattus norvegicus) (UniProt P22756); test: KAINATE/R Eurofins SafetyScreen44 (BI); details: Compound concentration 10.0 uM
[17] = biological target: P2X purinoceptor (Oryctolagus cuniculus) (UniProt G1U3D6); test: P2X/RB Eurofins SafetyScreen44 (BI); details: Compound concentration 10.0 uM
[18] = biological target: Cysteinyl leukotriene receptor 1 (Homo sapiens) (UniProt Q9Y271); test: CYSLT1_HS Eurofins SafetyScreen44 (BI); details: Compound concentration 10.0 uM
[19] = biological target: Histamine H1 receptor (Homo sapiens) (UniProt P35367); test: H1/H Eurofins SafetyScreen44 (BI)
[20] = biological target: Histamine H2 receptor (Homo sapiens) (UniProt P25021); test: H2/APT/HS Eurofins SafetyScreen44 (BI); details: filed as antagonist, Compound concentration 10.0 uM
[21] = biological target: Prostaglandin G/H synthase 1 (Homo sapiens) (UniProt P23219); test: COX-1 Eurofins SafetyScreen44 (BI); details: Compound concentration 10.0 uM
[22] = biological target: Delta-type opioid receptor (Homo sapiens) (UniProt P41143); test: DELTA2/H Eurofins SafetyScreen44 (BI); details: Compound concentration 10.0 uM
[23] = biological target: Voltage-dependent L-type calcium channel subunit alpha-1C (dihydropyridine site) (Rattus norvegicus, UniProt P22002); test: CA+/DHPSI/R Eurofins SafetyScreen44 (BI); design: mode of action inhibitor; details: rat brain, probe [3H](+)PN200-110, compound concentration 10 uM, read-out: % Ctrl
[24] = biological target: Prostaglandin G/H synthase 2 (Homo sapiens) (UniProt P35354); test: COX-2 Eurofins SafetyScreen44 (BI); details: Compound concentration 10.0 uM
[25] = biological target: Sodium-dependent serotonin transporter (Homo sapiens) (UniProt P31645); test: SLC6A4/H Eurofins SafetyScreen44 (BI); details: filed as antagonist, Compound concentration 10.0 uM
[26] = biological target: T2, 5-hydroxytryptamine receptor 1A (Homo sapiens) (UniProt P08908); test: 5HT1A/H Eurofins SafetyScreen44 (BI); details: Compound concentration 10.0 uM
T2 sequence (whole entry): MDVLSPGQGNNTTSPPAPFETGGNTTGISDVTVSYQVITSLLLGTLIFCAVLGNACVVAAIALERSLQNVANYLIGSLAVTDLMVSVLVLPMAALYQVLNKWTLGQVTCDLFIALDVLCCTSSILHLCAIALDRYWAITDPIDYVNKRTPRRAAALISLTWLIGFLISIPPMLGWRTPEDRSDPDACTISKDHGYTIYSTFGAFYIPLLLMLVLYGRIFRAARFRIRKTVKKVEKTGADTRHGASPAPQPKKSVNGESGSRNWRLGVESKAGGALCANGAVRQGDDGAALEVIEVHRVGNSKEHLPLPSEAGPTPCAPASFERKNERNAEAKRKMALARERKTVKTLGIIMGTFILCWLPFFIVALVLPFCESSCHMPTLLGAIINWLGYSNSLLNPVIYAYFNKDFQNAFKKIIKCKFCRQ

[27] = biological target: Mu-type opioid receptor (Homo sapiens) (UniProt P35372); test: MU/H Eurofins SafetyScreen44 (BI); details: Compound concentration 10.0 uM
[28] = biological target: 5-hydroxytryptamine receptor 1B (Homo sapiens) (UniProt P28222); test: 5HT1B(H) Eurofins SafetyScreen44 (BI); details: filed as antagonist, Compound concentration 10.0 uM
[29] = biological target: Endothelin-1 receptor (Homo sapiens) (UniProt P25101); test: ETA/H Eurofins SafetyScreen44 (BI); details: Compound concentration 10.0 uM
[30] = biological target: Muscarinic acetylcholine receptor M3 (Homo sapiens, UniProt P20309); test: M3/H Eurofins SafetyScreen44 (BI); details: Compound concentration 10.0 uM

Sequence of Histamine H1 receptor (Homo sapiens) (P35367 whole entry): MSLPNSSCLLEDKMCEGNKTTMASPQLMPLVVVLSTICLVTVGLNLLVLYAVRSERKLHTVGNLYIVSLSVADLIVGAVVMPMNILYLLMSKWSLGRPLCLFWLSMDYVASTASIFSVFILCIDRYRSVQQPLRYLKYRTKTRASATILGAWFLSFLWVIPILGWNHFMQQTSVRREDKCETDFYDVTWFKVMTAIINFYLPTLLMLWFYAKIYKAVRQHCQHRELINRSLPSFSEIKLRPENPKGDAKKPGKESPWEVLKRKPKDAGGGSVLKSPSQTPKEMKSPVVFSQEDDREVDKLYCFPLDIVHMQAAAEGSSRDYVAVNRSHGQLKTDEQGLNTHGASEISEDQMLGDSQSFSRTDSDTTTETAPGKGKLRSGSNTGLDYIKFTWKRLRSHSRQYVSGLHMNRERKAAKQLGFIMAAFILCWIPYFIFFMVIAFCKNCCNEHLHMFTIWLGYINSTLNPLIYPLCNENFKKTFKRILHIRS
Sequence of Sodium-dependent serotonin transporter (Homo sapiens) (P31645 whole entry, looked up): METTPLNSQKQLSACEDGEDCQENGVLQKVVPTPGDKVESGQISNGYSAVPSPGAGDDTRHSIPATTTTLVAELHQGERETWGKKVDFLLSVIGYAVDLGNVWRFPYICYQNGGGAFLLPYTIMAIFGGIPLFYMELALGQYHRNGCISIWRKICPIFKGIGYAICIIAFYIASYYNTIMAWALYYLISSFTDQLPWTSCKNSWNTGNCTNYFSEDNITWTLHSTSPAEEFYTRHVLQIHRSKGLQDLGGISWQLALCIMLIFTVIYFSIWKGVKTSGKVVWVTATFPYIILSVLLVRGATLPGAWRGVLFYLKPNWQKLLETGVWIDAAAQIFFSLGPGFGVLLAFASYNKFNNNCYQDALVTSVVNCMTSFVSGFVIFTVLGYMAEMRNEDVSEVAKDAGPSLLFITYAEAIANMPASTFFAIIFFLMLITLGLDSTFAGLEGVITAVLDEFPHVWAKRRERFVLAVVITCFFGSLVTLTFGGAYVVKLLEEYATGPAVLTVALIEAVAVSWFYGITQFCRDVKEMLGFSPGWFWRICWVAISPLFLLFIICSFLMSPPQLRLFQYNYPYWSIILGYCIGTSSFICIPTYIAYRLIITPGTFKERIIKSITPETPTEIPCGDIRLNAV
Sequence of Delta-type opioid receptor (Homo sapiens) (P41143 whole entry): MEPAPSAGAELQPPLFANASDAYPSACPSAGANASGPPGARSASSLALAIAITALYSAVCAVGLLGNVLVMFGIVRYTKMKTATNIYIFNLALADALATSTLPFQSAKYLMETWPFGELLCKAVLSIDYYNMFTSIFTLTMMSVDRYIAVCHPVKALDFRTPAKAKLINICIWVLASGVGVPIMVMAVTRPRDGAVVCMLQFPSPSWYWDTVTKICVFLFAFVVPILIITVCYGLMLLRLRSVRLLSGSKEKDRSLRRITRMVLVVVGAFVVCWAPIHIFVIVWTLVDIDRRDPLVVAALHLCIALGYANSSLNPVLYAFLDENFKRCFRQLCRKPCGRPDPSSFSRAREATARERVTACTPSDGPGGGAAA
Sequence of Histamine H2 receptor (Homo sapiens) (P25021 whole entry): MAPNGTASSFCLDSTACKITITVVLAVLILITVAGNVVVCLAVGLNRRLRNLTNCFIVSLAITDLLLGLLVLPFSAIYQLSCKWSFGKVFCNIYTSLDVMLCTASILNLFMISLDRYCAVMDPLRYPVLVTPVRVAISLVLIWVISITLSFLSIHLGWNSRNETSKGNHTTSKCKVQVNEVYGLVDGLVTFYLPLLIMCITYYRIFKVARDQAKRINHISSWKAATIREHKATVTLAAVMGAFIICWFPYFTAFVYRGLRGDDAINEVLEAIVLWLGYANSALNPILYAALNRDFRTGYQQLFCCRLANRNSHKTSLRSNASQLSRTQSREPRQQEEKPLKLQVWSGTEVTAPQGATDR
Sequence of Glutamate receptor ionotropic, kainate 1 (Rattus norvegicus) (P22756 whole entry): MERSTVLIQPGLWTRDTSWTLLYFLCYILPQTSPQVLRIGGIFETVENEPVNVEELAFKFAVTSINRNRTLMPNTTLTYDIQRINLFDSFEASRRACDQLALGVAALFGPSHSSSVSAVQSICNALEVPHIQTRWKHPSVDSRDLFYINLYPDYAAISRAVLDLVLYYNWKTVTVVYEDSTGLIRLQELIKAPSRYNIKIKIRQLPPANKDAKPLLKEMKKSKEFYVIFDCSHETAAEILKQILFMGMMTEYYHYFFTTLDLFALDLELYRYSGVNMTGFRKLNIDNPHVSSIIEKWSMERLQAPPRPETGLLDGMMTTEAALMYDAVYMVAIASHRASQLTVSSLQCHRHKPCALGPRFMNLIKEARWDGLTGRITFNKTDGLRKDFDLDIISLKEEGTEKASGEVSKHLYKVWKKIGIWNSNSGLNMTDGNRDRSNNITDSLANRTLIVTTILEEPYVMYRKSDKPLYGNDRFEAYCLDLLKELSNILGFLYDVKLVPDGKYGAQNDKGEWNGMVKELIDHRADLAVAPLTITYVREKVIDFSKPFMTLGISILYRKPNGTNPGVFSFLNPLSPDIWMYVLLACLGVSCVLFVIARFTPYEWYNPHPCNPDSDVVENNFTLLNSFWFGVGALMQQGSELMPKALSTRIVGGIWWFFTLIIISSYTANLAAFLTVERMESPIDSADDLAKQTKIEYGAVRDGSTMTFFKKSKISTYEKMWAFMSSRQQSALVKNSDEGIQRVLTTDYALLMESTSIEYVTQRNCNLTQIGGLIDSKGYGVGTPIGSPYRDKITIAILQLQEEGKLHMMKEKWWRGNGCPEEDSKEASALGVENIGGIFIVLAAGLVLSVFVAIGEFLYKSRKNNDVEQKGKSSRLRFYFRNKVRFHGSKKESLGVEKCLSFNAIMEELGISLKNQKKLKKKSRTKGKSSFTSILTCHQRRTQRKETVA
Sequence of Androgen receptor (Rattus norvegicus) (P15207 whole entry S389L): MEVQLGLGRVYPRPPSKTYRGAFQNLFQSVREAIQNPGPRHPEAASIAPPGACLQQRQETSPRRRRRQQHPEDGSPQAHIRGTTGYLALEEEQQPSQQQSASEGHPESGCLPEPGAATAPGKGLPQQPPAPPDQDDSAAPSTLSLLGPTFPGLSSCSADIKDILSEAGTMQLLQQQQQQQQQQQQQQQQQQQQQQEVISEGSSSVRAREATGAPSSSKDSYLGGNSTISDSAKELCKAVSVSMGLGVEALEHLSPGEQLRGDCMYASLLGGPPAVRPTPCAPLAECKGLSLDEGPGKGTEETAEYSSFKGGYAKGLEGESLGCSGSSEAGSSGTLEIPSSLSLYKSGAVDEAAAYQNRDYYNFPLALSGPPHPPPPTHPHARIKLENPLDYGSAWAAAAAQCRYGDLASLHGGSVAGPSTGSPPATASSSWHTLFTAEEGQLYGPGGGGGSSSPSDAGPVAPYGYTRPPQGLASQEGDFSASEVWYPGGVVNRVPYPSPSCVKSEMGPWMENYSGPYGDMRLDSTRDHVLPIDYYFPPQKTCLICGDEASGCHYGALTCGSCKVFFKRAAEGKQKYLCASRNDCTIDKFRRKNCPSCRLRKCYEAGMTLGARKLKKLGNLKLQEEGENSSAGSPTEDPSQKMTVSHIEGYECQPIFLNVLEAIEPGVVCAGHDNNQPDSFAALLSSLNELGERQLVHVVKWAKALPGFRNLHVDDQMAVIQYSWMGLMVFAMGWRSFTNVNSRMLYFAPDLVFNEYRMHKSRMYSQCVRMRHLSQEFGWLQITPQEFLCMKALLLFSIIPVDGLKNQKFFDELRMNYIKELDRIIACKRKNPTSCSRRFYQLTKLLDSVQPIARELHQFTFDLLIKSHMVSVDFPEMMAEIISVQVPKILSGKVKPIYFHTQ
Sequence of Cysteinyl leukotriene receptor 1 (Homo sapiens) (Q9Y271 whole entry): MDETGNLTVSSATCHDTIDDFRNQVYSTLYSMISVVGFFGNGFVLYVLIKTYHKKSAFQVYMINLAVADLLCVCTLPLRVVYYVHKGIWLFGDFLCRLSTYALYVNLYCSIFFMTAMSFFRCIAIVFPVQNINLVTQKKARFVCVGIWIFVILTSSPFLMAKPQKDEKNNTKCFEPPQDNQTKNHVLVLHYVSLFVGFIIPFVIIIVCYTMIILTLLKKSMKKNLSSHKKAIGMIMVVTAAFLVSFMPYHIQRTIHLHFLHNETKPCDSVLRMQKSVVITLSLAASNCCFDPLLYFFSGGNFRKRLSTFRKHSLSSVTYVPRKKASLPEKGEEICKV
Sequence of Kappa-type opioid receptor (Homo sapiens) (P41145 whole entry): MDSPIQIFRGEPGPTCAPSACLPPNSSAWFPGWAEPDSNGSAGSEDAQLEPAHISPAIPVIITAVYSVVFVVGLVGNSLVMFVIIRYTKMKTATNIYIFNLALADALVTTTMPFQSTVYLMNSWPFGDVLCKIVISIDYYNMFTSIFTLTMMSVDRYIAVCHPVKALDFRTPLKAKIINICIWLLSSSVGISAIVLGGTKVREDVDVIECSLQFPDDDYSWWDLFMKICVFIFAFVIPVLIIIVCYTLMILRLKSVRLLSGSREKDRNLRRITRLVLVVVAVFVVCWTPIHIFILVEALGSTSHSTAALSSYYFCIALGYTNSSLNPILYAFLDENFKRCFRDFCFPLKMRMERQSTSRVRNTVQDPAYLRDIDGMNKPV

Ki [7]: > 10 µM | pKi [7]: < 5
Compound: Cc1cc(OCCC(C)(C)O)cc(C)c1-c1ccc(F)c2c1CC[C@H]2Oc1ccc2c(c1)OC[C@H]2CC(=O)O
residual activity [1]: 98% | residual activity [2]: 95% | residual activity [3]: 106% | residual activity [4]: 96% | residual activity [5]: 99% | residual activity [6]: 106% | residual activity [8]: 88% | residual activity [9]: 75% | residual activity ([10]; Compound concentration 0.3 uM): 97% | residual activity ([10]; Compound concentration 1.0 uM): 98% | residual activity ([10]; Compound concentration 3.0 uM): 103% | residual activity ([10]; Compound concentration 10.0 uM): 90% | residual activity ([10]; Compound concentration 30.0 uM): 75% | activity at 10 µM [11]: 90% (not active) | residual activity [12]: 86% | residual activity [13]: 98% | residual activity [14]: 81% | residual activity [15]: 74% | residual activity [16]: 117% | residual activity [17]: 122% | residual activity [18]: 31% | residual activity ([19]; Compound concentration 0.3 uM): 90% | residual activity ([19]; Compound concentration 1.0 uM): 87% | residual activity ([19]; Compound concentration 3.0 uM): 68% | residual activity ([19]; Compound concentration 10.0 uM): 39% | residual activity ([19]; Compound concentration 30.0 uM): 17%

Compound: COCCCS(=O)(=O)c1cc(C)c(-c2ccc(F)c3c2CC[C@H]3Oc2ccc3c(c2)OC[C@H]3CC(=O)O)c(C)c1
residual activity [20]: 93% | residual activity [21]: 88% | residual activity [22]: 89% | activity at 10 µM [23]: 90% (not active) | residual activity [24]: 81% | residual activity [25]: 109% | residual activity [26]: 103% | residual activity [27]: 75% | residual activity [28]: 97% | residual activity [29]: 56% | residual activity [30]: 95%
